# Measured values: PubChem BioAssay AID256 (DTP/NCI, 2004)
# Inconclusive results and toxic doses are left out.
# Test system: CD2F1 mice, L1210 leukemia ip, survival T/C
# Test: NCI In Vivo Anticancer Drug Screen. Data for tumor model L1210 Leukemia (intraperitoneal) in CD2F1 (CDF1) mice
# Details: higher = longer survival
# Outline: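 In this screen, transplantable tumors were grown in mice given either the compound or its vehicle. Results were expressed as the treated measurement relative to the control measurement.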
# [1] = endpoint: mean survival time, dose: 100.0 mg/kg/injection, schedule: Q04DX003 (ip), vehicle: saline with Tween-80
# [2] = endpoint: mean survival time, dose: 200.0 mg/kg/injection, schedule: Q04DX003 (ip), vehicle: saline with Tween-80
# [3] = endpoint: mean survival time, dose: 400.0 mg/kg/injection, schedule: Q04DX003 (ip), vehicle: saline with Tween-80
# [4] = endpoint: mean survival time, dose: 50.0 mg/kg/injection, schedule: Q04DX003 (ip), vehicle: saline
# [5] = endpoint: mean survival time, dose: 100.0 mg/kg/injection, schedule: Q04DX003 (ip), vehicle: water
# [6] = endpoint: mean survival time, dose: 100.0 mg/kg/injection, schedule: Q04DX003 (ip), vehicle: Klucel (hydroxypropylcellulose) (HPC)
# [7] = endpoint: mean survival time, dose: 200.0 mg/kg/injection, schedule: Q04DX003 (ip), vehicle: Klucel (hydroxypropylcellulose) (HPC)
# [8] = endpoint: mean survival time, dose: 400.0 mg/kg/injection, schedule: Q04DX003 (ip), vehicle: Klucel (hydroxypropylcellulose) (HPC)
# [9] = endpoint: mean survival time, dose: 25.0 mg/kg/injection, schedule: Q04DX002 (ip), vehicle: saline with Tween-80
# [10] = endpoint: mean survival time, dose: 50.0 mg/kg/injection, schedule: Q04DX002 (ip), vehicle: saline with Tween-80
# [11] = endpoint: mean survival time, dose: 100.0 mg/kg/injection, schedule: Q04DX002 (ip), vehicle: saline with Tween-80
# [12] = endpoint: mean survival time, dose: 200.0 mg/kg/injection, schedule: Q04DX002 (ip), vehicle: saline with Tween-80
structure (smiles),measurement,setting,value
CCCCCCC(C/C=C\CCCCCCCC(=O)OC)OC(C)=O (stereo unspecified),T/C,[1],101 % of control
same,T/C,[2],101 % of control
same,T/C,[3],97 % of control
CCN(CC)CCCC(C)Nc1ncnc(N)c1[N+](=O)[O-] (stereo unspecified),T/C,"endpoint: mean survival time, dose: 25.0 mg/kg/injection, schedule: Q01DX009 (ip), vehicle: saline",103 % of control
same,T/C,"endpoint: mean survival time, dose: 25.0 mg/kg/injection, schedule: Q04DX003 (ip), vehicle: saline",106 % of control
same,T/C,"endpoint: mean survival time, dose: 50.0 mg/kg/injection, schedule: Q01DX009 (ip), vehicle: saline",92 % of control
same,T/C,[4],111 % of control
same,T/C,"endpoint: mean survival time, dose: 100.0 mg/kg/injection, schedule: Q01DX009 (ip), vehicle: saline",95 % of control
same,T/C,"endpoint: mean survival time, dose: 100.0 mg/kg/injection, schedule: Q04DX003 (ip), vehicle: saline",104 % of control
CC(=O)CC(C)=O.CC(=O)CC(C)=O.O.O.[Co],T/C,"endpoint: mean survival time, dose: 22.0 mg/kg/injection, schedule: Q04DX003 (ip), vehicle: saline with Tween-80",111 % of control
same,T/C,"endpoint: mean survival time, dose: 22.0 mg/kg/injection, schedule: Q04DX003 (ip), vehicle: saline",97 % of control
same,T/C,"endpoint: mean survival time, dose: 33.0 mg/kg/injection, schedule: Q04DX003 (ip), vehicle: saline with Tween-80",114 % of control
same,T/C,"endpoint: mean survival time, dose: 33.0 mg/kg/injection, schedule: Q04DX003 (ip), vehicle: saline",102 % of control
same,T/C,"endpoint: mean survival time, dose: 50.0 mg/kg/injection, schedule: Q04DX003 (ip), vehicle: saline with Tween-80",109 % of control
same,T/C,[4],108 % of control
CC(=O)Nc1nc2ncc(/C=C/c3ccccc3)nc2c(=O)[nH]1,T/C,"endpoint: mean survival time, dose: 75.0 mg/kg/injection, schedule: Q01DX001 (ip), vehicle: other",100 % of control
same,T/C,"endpoint: mean survival time, dose: 150.0 mg/kg/injection, schedule: Q01DX001 (ip), vehicle: other",97 % of control
CC(O)(P(=O)(O)O)P(=O)(O)O.[NH-]CC[NH-].[NH-]CC[NH-].[Pd+2].[Pd+2],T/C,"endpoint: mean survival time, dose: 3.13 mg/kg/injection, schedule: Q04DX003 (ip), vehicle: water",106 % of control
same,T/C,"endpoint: mean survival time, dose: 6.25 mg/kg/injection, schedule: Q04DX003 (ip), vehicle: water",103 % of control
same,T/C,"endpoint: mean survival time, dose: 12.5 mg/kg/injection, schedule: Q04DX003 (ip), vehicle: water",87 % of control
same,T/C,"endpoint: mean survival time, dose: 25.0 mg/kg/injection, schedule: Q04DX003 (ip), vehicle: water",103 % of control
same,T/C,"endpoint: mean survival time, dose: 50.0 mg/kg/injection, schedule: Q04DX003 (ip), vehicle: water",93 % of control
same,T/C,[5],102 % of control
C=CC=O,T/C,"endpoint: mean survival time, dose: 1.87 mg/kg/injection, schedule: Q01DX009 (ip), vehicle: saline",92 % of control
c1cc[c]([Sb]([c]2ccccc2)[c]2ccccc2)cc1,T/C,"endpoint: mean survival time, dose: 20.0 mg/kg/injection, schedule: Q04DX003 (ip), vehicle: saline sonified",97 % of control
same,T/C,"endpoint: mean survival time, dose: 40.0 mg/kg/injection, schedule: Q04DX003 (ip), vehicle: saline sonified",94 % of control
CCc1ccc(C(=O)N/N=C(\C)[C@]2(O)Cc3c(O)c4c(c(O)c3[C@@H](OC3CC(N)C(O)C(C)O3)C2)C(=O)c2c(OC)cccc2C4=O)cc1 (stereo partly specified),T/C,"endpoint: mean survival time, dose: 0.25 mg/kg/injection, schedule: Q01DX009 (ip), vehicle: water",100 % of control
same,T/C,"endpoint: mean survival time, dose: 0.5 mg/kg/injection, schedule: Q01DX009 (ip), vehicle: water",110 % of control
same,T/C,"endpoint: mean survival time, dose: 1.0 mg/kg/injection, schedule: Q01DX009 (ip), vehicle: water",112 % of control
same,T/C,"endpoint: mean survival time, dose: 8.0 mg/kg/injection, schedule: Q01DX009 (ip), vehicle: water",91 % of control
Cc1ccc(-n2c(=S)[nH]c3ccccc3c2=O)cc1,T/C,[1],100 % of control
CCC1(O)C(=O)OCc2c1cc1n(c2=O)Cc2cc3ccc(CO)cc3nc2-1 (stereo unspecified),T/C,"endpoint: median survival time, dose: 4.0 mg/kg/injection, schedule: Q04DX002 (ip), vehicle: saline with Tween-80",100 % of control
same,T/C,"endpoint: median survival time, dose: 8.0 mg/kg/injection, schedule: Q04DX002 (ip), vehicle: saline with Tween-80",113 % of control
same,T/C,"endpoint: median survival time, dose: 16.0 mg/kg/injection, schedule: Q04DX002 (ip), vehicle: saline with Tween-80",98 % of control
same,T/C,"endpoint: median survival time, dose: 32.0 mg/kg/injection, schedule: Q04DX002 (ip), vehicle: saline with Tween-80",108 % of control
CC(=O)N(C)N=Nc1ccc(C(F)(F)F)cc1,T/C,"endpoint: mean survival time, dose: 50.0 mg/kg/injection, schedule: Q04DX003 (ip), vehicle: Klucel (hydroxypropylcellulose) (HPC)",97 % of control
same,T/C,[6],102 % of control
same,T/C,[7],96 % of control
same,T/C,[8],105 % of control
C[N+]1(C)CCc2cc(O)c(O)cc2C1Cc1ccc(O)c(O)c1 (stereo unspecified),T/C,"endpoint: mean survival time, dose: 75.0 mg/kg/injection, schedule: Q01DX001 (ip), vehicle: saline",102 % of control
O=C(O)c1ccccc1CCl,T/C,[1],103 % of control
same,T/C,[2],108 % of control
same,T/C,[3],108 % of control
COC1=C(C)C(=O)C2=C(C1=O)C(COC(N)=O)C(=O)C1NC1CN2C (stereo unspecified),T/C,"endpoint: mean survival time, dose: 4.7 mg/kg/injection, schedule: Q01DX001 (ip), vehicle: carboxymethylcellulose (CMC)",110 % of control
C[n+]1nc(-c2ccccc2)oc1-c1ccccc1,T/C,[9],100 % of control
same,T/C,[10],100 % of control
same,T/C,[11],108 % of control
same,T/C,[12],106 % of control
C=C(Cc1ccccc1)C(=O)O,T/C,[9],92 % of control
same,T/C,[10],92 % of control
same,T/C,[11],95 % of control
Cc1ccc([N+](=O)[O-])cc1NC(=O)Nc1cc([N+](=O)[O-])ccc1O,T/C,"endpoint: mean survival time, dose: 100.0 mg/kg/injection, schedule: Q01DX009 (ip), vehicle: saline with Tween-80",91 % of control
same,T/C,"endpoint: mean survival time, dose: 200.0 mg/kg/injection, schedule: Q01DX009 (ip), vehicle: saline with Tween-80",96 % of control
same,T/C,"endpoint: mean survival time, dose: 400.0 mg/kg/injection, schedule: Q01DX009 (ip), vehicle: saline with Tween-80",107 % of control
CCCC1CC[N-]CC1.CCCC1CC[N-]CC1.[Br][Pt+2]([Br])([Br])[Br],T/C,"endpoint: mean survival time, dose: 6.25 mg/kg/injection, schedule: Q01DX009 (ip), vehicle: water",94 % of control
same,T/C,"endpoint: mean survival time, dose: 12.5 mg/kg/injection, schedule: Q01DX009 (ip), vehicle: water",96 % of control
same,T/C,"endpoint: mean survival time, dose: 25.0 mg/kg/injection, schedule: Q01DX009 (ip), vehicle: water",97 % of control
same,T/C,"endpoint: mean survival time, dose: 50.0 mg/kg/injection, schedule: Q01DX009 (ip), vehicle: water",91 % of control
same,T/C,[5],90 % of control
O=[N+]([O-])c1ccc(-c2ccccc2)c([As](=O)(O)O)c1,T/C,"endpoint: mean survival time, dose: 6.25 mg/kg/injection, schedule: Q04DX002 (ip), vehicle: saline with Tween-80",124 % of control
same,T/C,"endpoint: mean survival time, dose: 12.5 mg/kg/injection, schedule: Q04DX002 (ip), vehicle: saline with Tween-80",116 % of control
same,T/C,[9],104 % of control
Nc1ccnc(Oc2ccc(Cl)cc2)n1,T/C,"endpoint: mean survival time, dose: 100.0 mg/kg/injection, schedule: Q01DX001 (ip), vehicle: saline with Tween-80",104 % of control
same,T/C,"endpoint: mean survival time, dose: 200.0 mg/kg/injection, schedule: Q01DX001 (ip), vehicle: saline with Tween-80",104 % of control
same,T/C,"endpoint: mean survival time, dose: 400.0 mg/kg/injection, schedule: Q01DX001 (ip), vehicle: saline with Tween-80",98 % of control
CC1CCC2CON(C#N)C2C1 (stereo unspecified),T/C,[6],109 % of control
same,T/C,[7],101 % of control
same,T/C,[8],101 % of control
CCC[CH2][Sn]([CH2]C)([CH2]C)[O]C(C)=O,T/C,"endpoint: mean survival time, dose: 2.5 mg/kg/injection, schedule: Q01DX009 (ip), vehicle: saline with Tween-80",104 % of control
same,T/C,"endpoint: mean survival time, dose: 5.0 mg/kg/injection, schedule: Q01DX009 (ip), vehicle: saline with Tween-80",102 % of control
CNNCCO,T/C,"endpoint: mean survival time, dose: 50.0 mg/kg/injection, schedule: Q01DX001 (ip), vehicle: saline",104 % of control
same,T/C,"endpoint: mean survival time, dose: 100.0 mg/kg/injection, schedule: Q01DX001 (ip), vehicle: saline",101 % of control
same,T/C,"endpoint: mean survival time, dose: 200.0 mg/kg/injection, schedule: Q01DX001 (ip), vehicle: saline",101 % of control
CCC(=O)OCc1cc2ccccc2c(-c2c(O)c(CN3CCOCC3)cc3ccccc23)c1O,T/C,[11],95 % of control
same,T/C,[12],91 % of control
same,T/C,"endpoint: mean survival time, dose: 400.0 mg/kg/injection, schedule: Q04DX002 (ip), vehicle: saline with Tween-80",91 % of control
CN1CCCN(C)C1c1ccccc1O,T/C,"endpoint: mean survival time, dose: 12.5 mg/kg/injection, schedule: Q01DX009 (ip), vehicle: saline with Tween-80",105 % of control
same,T/C,"endpoint: mean survival time, dose: 25.0 mg/kg/injection, schedule: Q01DX009 (ip), vehicle: saline with Tween-80",102 % of control
same,T/C,"endpoint: mean survival time, dose: 50.0 mg/kg/injection, schedule: Q01DX009 (ip), vehicle: saline with Tween-80",107 % of control
Nc1cc(C(=O)Nc2ccc(C3=NCCN3)cc2)cc(C(=O)Nc2ccc(C3=NCCN3)cc2)c1,T/C,"endpoint: mean survival time, dose: 31.3 mg/kg/injection, schedule: Q01DX010 (oral), vehicle: saline",115 % of control
same,T/C,"endpoint: mean survival time, dose: 250.0 mg/kg/injection, schedule: Q01DX010 (oral), vehicle: saline",159 % of control
